We go through 19 molecules from ChEMBL document CHEMBL1156844, “Inhibition of neuraminidase activity by polyphenol compounds isolated from the roots of Glycyrrhiza uralensis” (Bioorg Med Chem Lett, 2010).

Target in one experiment: not listed separately
The experiment is described as follows: Inhibition of Spanish flu (A/Bervig_Mission/1/18) neuraminidase. Details: species or system Influenza A virus (A/Brevig Mission/1/1918(H1N1)).
Consider `COc1cc(O)ccc1C(=O)/C=C/c1ccc(O)cc1`, for which the IC50 (commonly the concentration that gives 50% inhibition) worked out at 24.3 µM. Still for that read-out and setting: in the case of `COc1c(CC=C(C)C)c(O)cc2oc(=O)c3c4ccc(O)cc4oc3c12` [GLYCYROL] it was 3.1 µM; in that of `COc1c2c(cc3oc(=O)c4c5ccc(O)cc5oc4c13)OC(C)(C)CC2` [ISOGLYCYROL], 92.4 µM. Same read-out and setting: for `O=C(/C=C/c1ccc(O)cc1)c1ccc(O)cc1O` [ISOLIQUIRITIGENIN] the value was 9 µM; for `O=C(/C=C/c1ccc(O[C@@H]2O[C@H](CO)[C@@H](O)[C@H](O)[C@H]2O[C@H]2OC[C@@](O)(CO)[C@@H]2O)cc1)c1ccc(O)cc1O` [ISOLIQUIRITIN APIOSIDE], 12.9 µM; for `O=C(/C=C/c1ccc(O[C@@H]2O[C@H](CO)[C@@H](O)[C@H](O)[C@H]2O)cc1)c1ccc(O)cc1O` [ISOLIQUIRITIN], 124 µM.

In turn, `COc1cc(O)c2c(=O)c(OC)c(-c3ccc(O)cc3)oc2c1` [KUMATAKENIN] displayed an IC50 of 36.4 µM. The same measure, in the same setting: in the case of `COc1c(CC=C(C)C)c(O)cc2oc(-c3ccc(O)cc3O)cc12` [LICOCOUMARONE] it was 27.8 µM; in that of `CC(C)=CCc1c(O)cc2oc(-c3ccc(O)cc3)c(O)c(=O)c2c1O` [LICOFLAVONOL], 20.6 µM. On to `O=C1C[C@@H](c2ccc(O[C@@H]3O[C@H](CO)[C@@H](O)[C@H](O)[C@H]3O[C@H]3OC[C@@](O)(CO)[C@@H]3O)cc2)Oc2cc(O)ccc21` [LIQUIRITIN APIOSIDE], for which half-maximal inhibition (IC50) was put at 18.2 µM. Same read-out and setting: in the case of `O=C1C[C@@H](c2ccc(O[C@@H]3O[C@H](CO)[C@@H](O)[C@H](O)[C@H]3O)cc2)Oc2cc(O)ccc21` [LIQUIRITIN] it was 82.3 µM; in that of `O=C1C[C@@H](c2ccc(O)cc2)Oc2cc(O)ccc21` [LIQUIRTIGENIN], 46.8 µM. On to `CCOC(=O)C1=C[C@@H](OC(CC)CC)[C@H](NC(C)=O)[C@@H](N)C1` [OSELTAMIVIR], for which the IC50 amounted to 1.59 µM.

Target in a further experiment: not listed separately
Put plainly: Inhibition of Spanish flu (A/Bervig_Mission/1/18) neuraminidase by noncompetitive inhibition assay. On the set-up: species or system Influenza A virus (A/Brevig Mission/1/1918(H1N1)).
In the case of `COc1cc(O)ccc1C(=O)/C=C/c1ccc(O)cc1`, the affinity, expressed as Ki, was 20.1 µM.

Turning to `COc1c(CC=C(C)C)c(O)cc2oc(=O)c3c4ccc(O)cc4oc3c12` [GLYCYROL], the affinity, expressed as Ki, was 2.9 µM. On the same count and under the same terms, for `COc1c2c(cc3oc(=O)c4c5ccc(O)cc5oc4c13)OC(C)(C)CC2` [ISOGLYCYROL] the value was 77.5 µM; for `O=C(/C=C/c1ccc(O)cc1)c1ccc(O)cc1O` [ISOLIQUIRITIGENIN], 9.9 µM. Still for that read-out and setting: in the case of `O=C(/C=C/c1ccc(O[C@@H]2O[C@H](CO)[C@@H](O)[C@H](O)[C@H]2O[C@H]2OC[C@@](O)(CO)[C@@H]2O)cc1)c1ccc(O)cc1O` [ISOLIQUIRITIN APIOSIDE] it was 14.2 µM; in that of `O=C(/C=C/c1ccc(O[C@@H]2O[C@H](CO)[C@@H](O)[C@H](O)[C@H]2O)cc1)c1ccc(O)cc1O` [ISOLIQUIRITIN], 94 µM; in that of `COc1cc(O)c2c(=O)c(OC)c(-c3ccc(O)cc3)oc2c1` [KUMATAKENIN], 90.3 µM. Same read-out and setting: in the case of `COc1c(CC=C(C)C)c(O)cc2oc(-c3ccc(O)cc3O)cc12` [LICOCOUMARONE] it was 12.1 µM; in that of `CC(C)=CCc1c(O)cc2oc(-c3ccc(O)cc3)c(O)c(=O)c2c1O` [LICOFLAVONOL], 33 µM. On to `O=C1C[C@@H](c2ccc(O[C@@H]3O[C@H](CO)[C@@H](O)[C@H](O)[C@H]3O[C@H]3OC[C@@](O)(CO)[C@@H]3O)cc2)Oc2cc(O)ccc21` [LIQUIRITIN APIOSIDE], for which the affinity corresponds to a Ki of 20.4 µM. Turning to `O=C1C[C@@H](c2ccc(O[C@@H]3O[C@H](CO)[C@@H](O)[C@H](O)[C@H]3O)cc2)Oc2cc(O)ccc21` [LIQUIRITIN], the Ki (as a rule, a measure of affinity in units of concentration, obtained from inhibition or displacement) was 124 µM. Still for that read-out and setting: for `O=C1C[C@@H](c2ccc(O)cc2)Oc2cc(O)ccc21` [LIQUIRTIGENIN] the value was 33.1 µM.

The test system of the next experiment is Influenza A virus (A/Brevig Mission/1/1918(H1N1)). The experiment is described as follows: Inhibition of Spanish flu (A/Bervig_Mission/1/18) neuraminidase at 200 uM.
Take `COc1c(CC=C(C)C)c(O)cc2c1C[C@H](c1ccc(O)cc1O)CO2`: the inhibition (commonly the relative decrease from the control value, in per cent) turned out to be 20%. On the same count and under the same terms, in the case of `COc1c2c(cc3oc(=O)c(-c4ccc(O)cc4O)cc13)OC(C)(CO)CC2` (stereo unspecified) it was 10%. As for `COc1cc2c(c(OC)c1CC=C(C)C)C(=O)[C@H](c1ccc(O)c(CC=C(C)C)c1O)CO2`, the inhibition worked out at 30%. Same read-out and setting: for `COc1cc2c(c(OC)c1CC=C(C)C)C[C@H](c1ccc(O)cc1O)CO2` the value was 20%; for `COc1cc2oc(=O)c(-c3ccc(O)cc3O)cc2c(OC)c1CC=C(C)C`, 10%; for `COc1ccc(-c2coc3cc(O[C@@H]4O[C@H](CO)[C@@H](O)[C@H](O)[C@H]4O)ccc3c2=O)cc1`, 30%.
